According to patent US20080188421A1, “Hunter-Killer Peptides and Methods of Use” (priority 2004, published 2008):

Legend:
Kaposi's sarcoma cells [1] = experiment: Mitochondrial function in KS cells (WST-1 assay); type: cell-based; conditions: KS cells treated with peptides at 12 ug/mL; for mitochondrial function (remaining) in treated KS cell culture: function reduced to
Experimental: (§1) KS cells were plated in DMEM with 10% FBS in 96-well plates. Media was replaced with 100 uL of DMEM without serum and cells were treated with peptides at 12 ug/mL: The peptides utilized had two distinct disulfide links and are shown below. The other peptides utilized in the studies and methods for tumor studies are essentially as reported in Nature Medicine 5(9): 1032-1038, 1999, which is incorporated herein by reference in its entirety. Crude peptide was unpurified peptide composed monomer and dimer and other species-oxidized forms of the peptide.
In order to determine the decrease in mitochondrial function in tumor cells targeted with HK-1, which has the structure (CNGRC-GG-d(KLAKLAK)2)2 (SEQ ID NO: 9), Kaposi's sarcoma cells were treated with HK-1, with the corresponding monomeric homing conjugate CNGRC-GG-d(KLAKLAK)2 (SEQ ID NO: 20), with a crude preparation of the CNGRC homing peptide monomers, with an RGD peptide preparation, with a preparation including KLAKLAK (SEQ ID NO: 5) antimicrobial peptides, and with a CNGR control preparation.

Kaposi's sarcoma cells [2] = experiment: Viability of KS cells (Live/Dead assay); type: cell-based; conditions: KS cells treated with peptides at 12 ug/mL in DMEM without serum
Experimental: as §1

mitochondrial membranes = conditions: at a concentration of 10 μM; cited from earlier work

| Substance | reduction in mitochondrial function (Kaposi's sarcoma cells [1]) [%] | mitochondrial function (remaining) in treated KS cell culture (Kaposi's sarcoma cells [1]) | cell death (Kaposi's sarcoma cells [2]) | mitochondrial swelling (mitochondrial membranes) |
| --- | --- | --- | --- | --- |
| (CNGRC-GG-d(KLAKLAK)2)2 [HK-1] | 63 | 37% | ~50% | – |
| CNGRC-GG-d(KLAKLAK)2 | 34 | over 65% | approximately 10% | – |
| d(KLAKLAK)2 | – | – | – | marked mitochondrial swelling |
